In patent US20190367963A1, “METHOD FOR SELECTING ODOR CONTROL SUBSTANCE” (KAO CORPORATION, priority 2017, published 2019):
Blank lines part the entries; values can stand above or below the compound they belong to.

Tests used:
[1] = target: T1, OR2W1 (Homo sapiens, UniProt Q9Y3N9); test: Luciferase reporter gene assay of OR2W1 expressing HEK293 cells; assay type: cell-based
T1 construct: expressed in transfected cells; host or cells: HEK293
T1 sequence (Q9Y3N9 1-320): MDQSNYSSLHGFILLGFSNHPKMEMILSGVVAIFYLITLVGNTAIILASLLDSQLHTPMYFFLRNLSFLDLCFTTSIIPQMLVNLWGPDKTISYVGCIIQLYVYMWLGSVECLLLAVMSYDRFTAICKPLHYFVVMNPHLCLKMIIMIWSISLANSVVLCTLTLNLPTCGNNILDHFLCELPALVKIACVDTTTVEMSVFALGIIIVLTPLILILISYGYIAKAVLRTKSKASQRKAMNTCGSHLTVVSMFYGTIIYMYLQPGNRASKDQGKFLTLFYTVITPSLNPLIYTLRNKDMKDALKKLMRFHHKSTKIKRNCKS
Source text: (§1) Based on the sequence information registered in GenEank, genes encoding 427 human olfactory receptors including variants were each cloned. Each gene was cloned by PCR using human genomic DNA female (G1521: Promega) as the template. Each gene amplified by PCR was recombined downstream of a Flag-Rho tag sequence on a pME18S vector.
(§2) A gene encoding human RTP1S was inserted into the EcoRI/XhoI site of a pME18S vector.
427 HEK293 cells differently expressing one of 427 human olfactory receptors were produced. Reaction solutions having compositions shown in Table 1 were prepared and were left to stand in a clean bench for 15 minutes. The reaction solutions were added to each well of a multi-well plate (384 or 96-well plate, BioCoat), and HEK293 cells were then seeded. In the 384-well plate, 4.4 μL of a reaction solution and 40 μL of HEK293 cells (20×10^4 cells/cm^2) were added. In the 96-well plate, 10 μL of a reaction solution and 90 μL of HEK293 cells (3×10^5 cells/cm^2) were added. The cells were cultured in an incubator maintained at 37° C. and 5% CO2 for 24 hours. As a control, cells not expressing an olfactory receptor (mock) were prepared.
The olfactory receptor expressed in HEK293 cells interact with endogenous cellular Gas to activate adenylate cyclase and thereby increases the intracellular cAMP level. The measurement of the response of cells to an odorant, test substance, or antagonist in the present invention was performed by a luciferase reporter gene assay monitoring the increase in the intracellular cAMP level as a light emission value derived from a firefly luciferase gene (fluc2P-CRE-hygro). A Renilla luciferase gene fused to downstream of a CMV promoter (hRluc-CMV) was simultaneously transfected and was used as an internal standard for calibrating the error in gene transfer efficiency or the number of cells. The luciferase activity was measured from 2.5 to 4 hours after stimulation with an odorant or a test substance with a Dual-Glo™ luciferase assay system (Promega), following user's manual thereof. The value fLuc/hRluc was calculated by dividing the light emission value derived from firefly luciferase by the light emission value derived from Renilla luciferase. “Fold increase” as an indicator of the responsiveness of an olfactory receptor to stimulation with a test substance, and “odor response” (%) as an indicator of the activity level of an antagonist to the olfactory receptor, were calculated according to the following formula: […]
X: fLuc/hRluc, induced by stimulation with a test substance alone, and
Y: fLuc/hRluc, without stimulation with a test substance.
L-Arginine and 1-histidine were used as test substances. […]

[2] = Sensory examination: PEA detection threshold value before and after nasal administration; assay type: in vivo; settings: 10 mM in saline, nasal spray, human examinees, one minute after spraying
Description: The action of 1-arginine, which is an OR2W1 selective ligand, on olfaction was evaluated by sensory examination. Three samples, saline (Otsuka Pharmaceutical Co., Ltd.), saline aqueous solution containing 10 mM 1-arginine, and saline aqueous solution containing 10 mM 1-histidine, were prepared and filled into nasal sprays (KT110-102, AS ONE Corporation). […] PEA aqueous solutions with 11 different concentrations from 0.001 to 100 WA were prepared as test solutions, and 3 mL of each of the solutions was respectively added to 20-mL glass vials (Maruemu Corporation).
The experiment was blinded to both an examiner and an examinee. The examiner set the spray spout in the nasal cavity of the examinee as deep as possible and sprayed once. The amount of liquid ejected thereby was about 100 to 200 μL. […] The concentration that gave a correct answer three consecutive times after answering an incorrect answer was determined as the detection threshold value. […] Before and after the nasal administration of a sample, detection threshold values of an examinee to PEA were measured. The rate of change in the threshold value was determined by calculating (threshold value concentration before sample nasal administration)/(threshold value concentration after sample nasal administration).

[3] = tested on: 427 human olfactory receptors; test: Luciferase reporter gene assay of 427 human olfactory receptors expressed in HEK293 cells; assay type: cell-based; settings: test substance 10 mM
Source text: as §1, §2
427 HEK293 cells differently expressing one of 427 human olfactory receptors were produced. Reaction solutions having compositions shown in Table 1 were prepared and were left to stand in a clean bench for 15 minutes. The reaction solutions were added to each well of a multi-well plate (384 or 96-well plate, BioCoat), and HEK293 cells were then seeded. […]
The olfactory receptor expressed in HEK293 cells interact with endogenous cellular Gas to activate adenylate cyclase and thereby increases the intracellular cAMP level. […] The luciferase activity was measured from 2.5 to 4 hours after stimulation with an odorant or a test substance with a Dual-Glo™ luciferase assay system (Promega), following user's manual thereof. The value fLuc/hRluc was calculated by dividing the light emission value derived from firefly luciferase by the light emission value derived from Renilla luciferase. […]

[4] = Sensory examination: odor intensity (labeled magnitude scale) on simultaneous exposure to odorant and test substance; assay type: in vivo, human; settings: test substance 10 mM in saline, ultrasonic nebulizer, LMS; for odor intensity of HCA used together with test substance: HCA 0.1 mM; for odor intensity of PEA used together with test substance: PEA 0.1 mM
Description: Whether the odor of an odorant was enhanced or not by simultaneous exposure to the odorant and 1-arginine was investigated by comparing with exposure to the odorant alone. PEA or hexyl cinnamic aldehyde (HCA) was used as the odorant. The odorant was added at a final concentration of 0.1 mM to a saline aqueous solution with 1-arginine (10 mM) and a saline aqueous solution with 1-histidine (10 mM) as a control. The resulting solutions were sprayed to an examinee for inhaling using an ultrasonic nebulizer (NE-U07: OMRON Corporation, atomization particle diameter: 1 to 8 μm (80% of total volume particle diameter distribution)) with a spray amount of about 170 μL (for about 20 seconds) at most, and odor intensity was evaluated.
The odor intensity was evaluated according to the method of Green, et al, (Chemical senses, 1996, 21: 323-34) with the labeled magnitude scale (LMS) shown below. That is, assuming the full scale length was 100%, labels were set to the following positions: Barely detectable: 1.4%, Weak: 6.1%, Moderate: 17.2%, Strong: 35.4%, Very strong: 53.3%, Strongest imaginable: 100%.

response of OR2W1 expressing cells [1]: responded
Structure (SMILES): OCCc1ccccc1 [PEA, 2-phenylethanol]

Structure (SMILES): N=C(N)NCCC[C@H](N)C(=O)O [1-arginine, L-Arginine]
response of OR2W1 expressing cells [1]: responded to 1-arginine concentration dependently | PEA detection threshold value after nasal administration [2]: decreased in statistically significant manner | responses of 427 olfactory receptors [3]: no olfactory receptors other than OR2W1 responded | odor intensity of HCA used together with test substance [4]: enhanced in statistically siggificant manner | odor intensity of PEA used together with test substance [4]: enhanced in statistically siggificant manner

Structure (SMILES): CCCCCCC(C=O)=Cc1ccccc1 [HCA, 2-(phenylmethylidene)octanal]
response of OR2W1 expressing cells [1]: did not respond

response of OR2W1 expressing cells [1]: did not respond
Structure (SMILES): N[C@@H](Cc1c[nH]cn1)C(=O)O [1-histidine, L-Histidine]
PEA detection threshold value after nasal administration [2]: not observed | responses of 427 olfactory receptors [3]: did not respond | odor intensity of HCA used together with test substance [4]: the effect of enhancing the odor intensity was not observed | odor intensity of PEA used together with test substance [4]: the effect of enhancing the odor intensity was not observed
